These results are taken from PubChem BioAssay (NCI).

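Interpolation was linear, between the two tested concentrations surrounding the appropriate level; five concentrations were tested over 48 hours in 96-well plates. TGI is the concentration that stops growth completely.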 A value given as a limit tells only on which side of the number the result lay.

The first assay deals with CAKI-1 renal. Kind of assay: NCI-60 cell line screen, 48 h.
In turn, `N#CC1(C#N)C2CCCCC23OC(=N)C1(C#N)C(c1ccccc1)O3` (stereo not drawn) displayed a TGI of 24.5 µM.
On to `Cc1ccsc1/C=N/Nc1ccc2ccccc2n1`, for which the TGI was more than 100 µM.

The subject of the next assay is A498 renal. Kind of assay: NCI-60 cell line screen, 48 h.
Compound `N#CC1(C#N)C2CCCCC23OC(=N)C1(C#N)C(c1ccccc1)O3` (stereo not drawn) yielded a TGI of 48.9 µM.
Same read-out and setting: as for `CCN1CCN=c2c3cc(OC)ccc3n3cnc4ccc1c2c43`, the figure is 0.735 µM; as for `Cc1ccsc1/C=N/Nc1ccc2ccccc2n1`, more than 100 µM.

The test system of another assay is MCF7 breast. Description: NCI-60 cell line screen, 48 h.
In the case of `CC[C@]1(Cc2ccc(OC)c(OC)c2)[C@@H]2C[C@@H](C3OCCO3)ON2O[C@H](OC2CCCC2(c2ccccc2)c2ccccc2)[C@@H]1OC(C)=O` (stereo partly drawn), the TGI came to 41.1 µM.
Turning to `N#CC1(C#N)C2CCCCC23OC(=N)C1(C#N)C(c1ccccc1)O3` (stereo not drawn), the TGI came out at 49.9 µM.
Regarding `CCN1CCN=c2c3cc(OC)ccc3n3cnc4ccc1c2c43`, the TGI is 0.993 µM.
For the compound `Cc1ccsc1/C=N/Nc1ccc2ccccc2n1`, the TGI was 32.3 µM.

The subject of another assay is HCT-15 colon. Kind of assay: NCI-60 cell line screen, 48 h.
As to `CC[C@]1(Cc2ccc(OC)c(OC)c2)[C@@H]2C[C@@H](C3OCCO3)ON2O[C@H](OC2CCCC2(c2ccccc2)c2ccccc2)[C@@H]1OC(C)=O` (stereo partly drawn), the TGI amounted to 30.3 µM.
The same measure, in the same setting: as for `N#CC1(C#N)C2CCCCC23OC(=N)C1(C#N)C(c1ccccc1)O3` (stereo not drawn), the figure is 28.6 µM.
Still for that read-out and setting: next, `CCN1CCN=c2c3cc(OC)ccc3n3cnc4ccc1c2c43`: 0.432 µM.
Same read-out and setting: next, `Cc1ccsc1/C=N/Nc1ccc2ccccc2n1`: more than 100 µM.

A further assay deals with NCI-H460 lung. Description: NCI-60 cell line screen, 48 h.
`CC[C@]1(Cc2ccc(OC)c(OC)c2)[C@@H]2C[C@@H](C3OCCO3)ON2O[C@H](OC2CCCC2(c2ccccc2)c2ccccc2)[C@@H]1OC(C)=O` (stereo partly drawn) had a TGI of 34.7 µM.
`N#CC1(C#N)C2CCCCC23OC(=N)C1(C#N)C(c1ccccc1)O3` (stereo not drawn) returned a TGI of 49.7 µM.
The same measure, in the same setting: as for `CCN1CCN=c2c3cc(OC)ccc3n3cnc4ccc1c2c43`, the figure is 0.308 µM.

A further assay concerns MOLT-4 leukemia. Description: NCI-60 cell line screen, 48 h.
Regarding `CC[C@]1(Cc2ccc(OC)c(OC)c2)[C@@H]2C[C@@H](C3OCCO3)ON2O[C@H](OC2CCCC2(c2ccccc2)c2ccccc2)[C@@H]1OC(C)=O` (stereo partly drawn), the TGI stood at 29 µM.
`N#CC1(C#N)C2CCCCC23OC(=N)C1(C#N)C(c1ccccc1)O3` (stereo not drawn) yielded a TGI of more than 100 µM.
`CCN1CCN=c2c3cc(OC)ccc3n3cnc4ccc1c2c43` returned a TGI of 1.57 µM.
Take `Cc1ccsc1/C=N/Nc1ccc2ccccc2n1`: the TGI is more than 100 µM.

A further assay has as its system PC-3 prostate. Description: NCI-60 cell line screen, 48 h.
Take `CC[C@]1(Cc2ccc(OC)c(OC)c2)[C@@H]2C[C@@H](C3OCCO3)ON2O[C@H](OC2CCCC2(c2ccccc2)c2ccccc2)[C@@H]1OC(C)=O` (stereo partly drawn): the TGI was determined as 63.8 µM.
`N#CC1(C#N)C2CCCCC23OC(=N)C1(C#N)C(c1ccccc1)O3` (stereo not drawn) displayed a TGI of 55.4 µM.
The same measure, in the same setting: next, `CCN1CCN=c2c3cc(OC)ccc3n3cnc4ccc1c2c43`: 0.8 µM.
Still for that read-out and setting: as for `Cc1ccsc1/C=N/Nc1ccc2ccccc2n1`, the figure is more than 100 µM.

Another assay concerns OVCAR-5 ovarian. Kind of assay: NCI-60 cell line screen, 48 h.
In the case of `CC[C@]1(Cc2ccc(OC)c(OC)c2)[C@@H]2C[C@@H](C3OCCO3)ON2O[C@H](OC2CCCC2(c2ccccc2)c2ccccc2)[C@@H]1OC(C)=O` (stereo partly drawn), the TGI came out at 36 µM.
`N#CC1(C#N)C2CCCCC23OC(=N)C1(C#N)C(c1ccccc1)O3` (stereo not drawn): the TGI stood at 50.6 µM.
Same read-out and setting: as for `CCN1CCN=c2c3cc(OC)ccc3n3cnc4ccc1c2c43`, the figure is 0.929 µM.
With `Cc1ccsc1/C=N/Nc1ccc2ccccc2n1`, the TGI is more than 100 µM.

The next assay relates to MDA-MB-231 breast. Kind of assay: NCI-60 cell line screen, 48 h.
In turn, `CC[C@]1(Cc2ccc(OC)c(OC)c2)[C@@H]2C[C@@H](C3OCCO3)ON2O[C@H](OC2CCCC2(c2ccccc2)c2ccccc2)[C@@H]1OC(C)=O` (stereo partly drawn) displayed a TGI of more than 100 µM.
On the same count and under the same terms, next, `N#CC1(C#N)C2CCCCC23OC(=N)C1(C#N)C(c1ccccc1)O3` (stereo not drawn): 33.8 µM; `CCN1CCN=c2c3cc(OC)ccc3n3cnc4ccc1c2c43`: 0.814 µM.

A further assay deals with UACC-62 melanoma. Kind of assay: NCI-60 cell line screen, 48 h.
Turning to `CC[C@]1(Cc2ccc(OC)c(OC)c2)[C@@H]2C[C@@H](C3OCCO3)ON2O[C@H](OC2CCCC2(c2ccccc2)c2ccccc2)[C@@H]1OC(C)=O` (stereo partly drawn), the TGI is more than 100 µM.
On the same count and under the same terms, as for `N#CC1(C#N)C2CCCCC23OC(=N)C1(C#N)C(c1ccccc1)O3` (stereo not drawn), the figure is 49.4 µM; as for `CCN1CCN=c2c3cc(OC)ccc3n3cnc4ccc1c2c43`, 0.975 µM.
Same read-out and setting: as for `Cc1ccsc1/C=N/Nc1ccc2ccccc2n1`, the figure is more than 100 µM.

The subject of another assay is OVCAR-3 ovarian. Description: NCI-60 cell line screen, 48 h.
For the compound `CC[C@]1(Cc2ccc(OC)c(OC)c2)[C@@H]2C[C@@H](C3OCCO3)ON2O[C@H](OC2CCCC2(c2ccccc2)c2ccccc2)[C@@H]1OC(C)=O` (stereo partly drawn), the TGI was 25.4 µM.
Consider `N#CC1(C#N)C2CCCCC23OC(=N)C1(C#N)C(c1ccccc1)O3` (stereo not drawn), for which the TGI turned out to be 28.2 µM.
The compound `CCN1CCN=c2c3cc(OC)ccc3n3cnc4ccc1c2c43` registered a TGI of 0.525 µM.
On the same count and under the same terms, as for `Cc1ccsc1/C=N/Nc1ccc2ccccc2n1`, the figure is more than 100 µM.

In a further assay the test system is LOX IMVI melanoma. Kind of assay: NCI-60 cell line screen, 48 h.
In turn, `CC[C@]1(Cc2ccc(OC)c(OC)c2)[C@@H]2C[C@@H](C3OCCO3)ON2O[C@H](OC2CCCC2(c2ccccc2)c2ccccc2)[C@@H]1OC(C)=O` (stereo partly drawn) returned a TGI of 53.9 µM.
`N#CC1(C#N)C2CCCCC23OC(=N)C1(C#N)C(c1ccccc1)O3` (stereo not drawn) displayed a TGI of 45.1 µM.
For the compound `CCN1CCN=c2c3cc(OC)ccc3n3cnc4ccc1c2c43`, the TGI came to 0.776 µM.
Same read-out and setting: as for `Cc1ccsc1/C=N/Nc1ccc2ccccc2n1`, the figure is more than 100 µM.

The next assay relates to 786-0 renal. Kind of assay: NCI-60 cell line screen, 48 h.
The compound `CC[C@]1(Cc2ccc(OC)c(OC)c2)[C@@H]2C[C@@H](C3OCCO3)ON2O[C@H](OC2CCCC2(c2ccccc2)c2ccccc2)[C@@H]1OC(C)=O` (stereo partly drawn) returned a TGI of 41.1 µM.
The same measure, in the same setting: next, `N#CC1(C#N)C2CCCCC23OC(=N)C1(C#N)C(c1ccccc1)O3` (stereo not drawn): 33.7 µM; `CCN1CCN=c2c3cc(OC)ccc3n3cnc4ccc1c2c43`: 0.394 µM.
For `Cc1ccsc1/C=N/Nc1ccc2ccccc2n1`, the TGI was more than 100 µM.

Another assay relates to SNB-19 CNS. Description: NCI-60 cell line screen, 48 h.
`CC[C@]1(Cc2ccc(OC)c(OC)c2)[C@@H]2C[C@@H](C3OCCO3)ON2O[C@H](OC2CCCC2(c2ccccc2)c2ccccc2)[C@@H]1OC(C)=O` (stereo partly drawn) returned a TGI of 36.9 µM.
Still for that read-out and setting: next, `N#CC1(C#N)C2CCCCC23OC(=N)C1(C#N)C(c1ccccc1)O3` (stereo not drawn): more than 100 µM.
For `CCN1CCN=c2c3cc(OC)ccc3n3cnc4ccc1c2c43`, the TGI was found to be 1.95 µM.
Same read-out and setting: as for `Cc1ccsc1/C=N/Nc1ccc2ccccc2n1`, the figure is more than 100 µM.

The next assay relates to SR leukemia. Kind of assay: NCI-60 cell line screen, 48 h.
For `CC[C@]1(Cc2ccc(OC)c(OC)c2)[C@@H]2C[C@@H](C3OCCO3)ON2O[C@H](OC2CCCC2(c2ccccc2)c2ccccc2)[C@@H]1OC(C)=O` (stereo partly drawn), the TGI was found to be 45.5 µM.
`CCN1CCN=c2c3cc(OC)ccc3n3cnc4ccc1c2c43` came in with a TGI of 0.158 µM.
